Source: patent publication US11840521B2, “Modulators of Mas-related G-protein receptor X4 and related products and methods” (Escient Pharmaceuticals, Inc., priority 2019, dated 2023)

Biological target: MRGPRX4 (Homo sapiens, UniProt Q96LA9)
Assay: MRGPR X4 antagonist activity, IP-One Gq HTRF assay in stably transfected HEK cells (versus agonist bilirubin, deoxycholic acid, conjugated bilirubin, urobilin, obeticholic acid or BAR502)
Type: cell-based
Set-up: expressed in transfected cells; host or cells: HEK cells, stably transfected
Settings: versus 10 μM Bilirubin agonist; HEK cells expressing human MRGPR X4; read-out: MRGPR4 Antagonist Activity
Procedure, shortened: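 Stably transfected HEK cells expressing human MRGPR X4, seeded overnight, given compounds as 10-point 1:3 curves from 10 uM final top, incubated 1 h at 37° C then 30 min at room temperature. IP-1 measured by IP-One Gq HTRF. IC50 derived from the HTRF ratio.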

MRGPRX4, sequence (Q96LA9 whole entry): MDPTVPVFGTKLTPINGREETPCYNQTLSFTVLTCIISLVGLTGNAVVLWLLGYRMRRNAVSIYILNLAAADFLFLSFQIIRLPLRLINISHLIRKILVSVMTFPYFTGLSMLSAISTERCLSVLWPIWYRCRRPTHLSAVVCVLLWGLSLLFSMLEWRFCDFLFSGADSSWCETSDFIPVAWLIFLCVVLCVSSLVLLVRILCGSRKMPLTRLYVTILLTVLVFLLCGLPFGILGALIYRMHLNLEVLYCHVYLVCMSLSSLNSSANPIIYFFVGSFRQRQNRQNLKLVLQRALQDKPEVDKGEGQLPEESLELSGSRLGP

| SMILES | IC50 |
| --- | --- |
| CNCCNC(=O)c1cccc(COc2ccc(C(F)(F)F)cc2Cl)c1 [Compound 53-1, 3-((2-chloro-4-(trifluoromethyl)phenoxy)methyl)-N-(2-(methylamino)ethyl)benzamide] | 500 to 1000 nM |
| O=C(O)c1cccc(COc2ccc(C(F)F)cc2Cl)c1 [Compound 33-3] | < 100 nM |
| N#Cc1ccc(OCc2cccc(C(=O)O)c2)cc1Cl [Compound 1-90] | 100 to 500 nM |
| O=C1CC(c2cccc(COc3ccc(C(F)(F)F)cc3Cl)c2)N1 (stereo not shown) [Compound 59-1, 4-(3-((2-chloro-4-(trifluoromethyl)phenoxy)methyl)phenyl)azetidin-2-one] | 500 to 1000 nM |
| O=C(O)c1ccc(NC(=O)c2cccc(COc3ccc(C(F)(F)F)cc3Cl)c2)cc1 [Compound 54-10] | 500 to 1000 nM |
| O=C(c1cccc(COc2ccc(C(F)(F)F)cc2Cl)c1)N1CCCC(O)C1 (stereo not shown) [Compound 52-21] | 500 to 1000 nM |
| O=C(O)c1cccc(COc2ccc3sccc3c2)c1 [Compound 1-134] | 100 to 500 nM |
| N#Cc1cc(COc2ccc(C(F)(F)F)c(Cl)c2)cc(C(=O)O)c1 [Compound 32-5] | < 100 nM |
| O=C(NCCCO)c1cccc(COc2ccc(C(F)(F)F)cc2Cl)c1 [Compound 52-12] | 100 to 500 nM |
| Cc1cc(Cl)ccc1OCc1cccc(C(=O)O)c1 [Compound 3-5] | 100 to 500 nM |
| CCNC(=O)c1cccc(COc2ccc(C(F)(F)F)cc2Cl)c1 [Compound 52-10] | 100 to 500 nM |
| Cc1cc(-c2ccccc2)ccc1OCc1cccc(C(=O)O)c1 [Compound 1-51] | 1000 to 2500 nM |
| Cc1ccc(OCc2cccc(C(=O)O)c2)c(C)c1F [Compound 1-60] | 500 to 1000 nM |
| O=S(=O)(O)c1cccc(COc2ccc(C(F)(F)F)cc2Cl)c1 [Compound 40-1, 3-((2-chloro-4-(trifluoromethyl)phenoxy)methyl)benzenesulfonic acid] | 500 to 1000 nM |
| O=C(O)c1cc(F)cc(COc2ccc(Cl)c(Cl)c2Cl)c1 [Compound 1-123] | < 100 nM |
| FC(F)(F)c1ccc(OCc2cccc(-c3ncc[nH]3)c2)c(Cl)c1 [Compound 46-1, 2-(3-((2-chloro-4-(trifluoromethyl)phenoxy)methyl)phenyl)-1H-imidazole] | 100 to 500 nM |
| O=C(NC1CCCC1)c1cccc(COc2ccc(C(F)(F)F)cc2Cl)c1 [Compound 52-23] | 100 to 500 nM |
| COc1ccc(OCc2cccc(C(=O)O)c2)c(F)c1F [Compound 1-96] | 500 to 1000 nM |
| CNCc1cccc(COc2ccc(C(F)(F)F)cc2Cl)c1 [Compound 63-1, 1-(3-((2-chloro-4-(trifluoromethyl)phenoxy)methyl)phenyl)-N-methylmethanamine] | 100 to 500 nM |
| O=C(O)c1cccc(COc2ccc(OC(F)(F)F)c(Cl)c2)c1 [Compound 1-132] | < 100 nM |

| SMILES | IC50 |
| --- | --- |
| COCCCNC(=O)c1cccc(COc2ccc(C(F)(F)F)cc2Cl)c1 [Compound 52-13] | < 100 nM |
| O=C(O)c1cccc(COc2ccc(C(F)(F)F)c(Cl)c2)c1F [Compound 4-15] | < 100 nM |
| Cc1cc(Cl)ccc1OCc1cccc(-c2nnn[nH]2)c1 [Compound 17-13] | < 100 nM |
| Fc1ccc(COc2ccc(C(F)(F)F)cc2Cl)cc1-c1nnn[nH]1 [Compound 17-16] | < 100 nM |
| N#Cc1c(COc2ccc(Cl)cc2Cl)cccc1C(=O)O [Compound 4-6] | 100 to 500 nM |
| O=C(O)c1cccc(COc2cccc(Br)c2)c1 [Compound 1-109] | 500 to 1000 nM |
| Cc1noc(-c2cccc(COc3ccc(C(F)(F)F)cc3Cl)c2)n1 [Compound 49-1, 5-(3-((2-chloro-4-(trifluoromethyl)phenoxy)methyl)phenyl)-3-methyl-1,2,4-oxadiazole] | > 2500 nM |
| CN(C)c1cc(COc2ccc(C(F)(F)F)cc2Cl)cc(C(=O)O)c1 [Compound 38-1, 3-((2-chloro-4-(trifluoromethyl)phenoxy)methyl)-5-(dimethylamino)benzoic acid] | 100 to 500 nM |
| N#CCc1ccccc1OCc1cccc(C(=O)O)c1 [Compound 1-150] | > 2500 nM |
| O=C(N[C@@H](Cc1c[nH]cn1)C(=O)O)c1cccc(COc2ccc(C(F)(F)F)cc2Cl)c1 [Compound 55-2] | 500 to 1000 nM |
| O=C(O)c1cccc(COc2ccc(Oc3ccccc3)cc2)c1 [Compound 1-52] | > 2500 nM |
| COCCNC(=O)c1cccc(COc2ccc(C(F)(F)F)cc2Cl)c1 [Compound 52-9] | 500 to 1000 nM |
| N#CCNC(=O)c1ccc(COc2ccc(C(F)(F)F)cc2Cl)cc1 [Compound 52-6] | 100 to 500 nM |
| CC(C)NC(=O)c1cccc(COc2ccc(C(F)(F)F)cc2Cl)c1 [Compound 52-8] | 100 to 500 nM |
| COC(=O)c1cc(COc2ccc(Cl)cc2Cl)on1 [Compound 1-15] | 1000 to 2500 nM |
| O=C(O)c1ccc(COc2ccc(Cl)cc2Cl)s1 [Compound 1-43] | 500 to 1000 nM |
| COC(=O)c1cccc(COc2cccc(F)c2)c1 [Compound 1-5] | 100 to 500 nM |
| COC(=O)c1cccc(COc2ccc(OC(F)(F)F)cc2)c1 [Compound 1-6] | 1000 to 2500 nM |
| O=C(O)c1cc(C2CC2)cc(COc2ccc(C(F)(F)F)cc2Cl)n1 [Compound 8-3] | < 100 nM |
| O=C(O)c1cccc(COc2ccc3sccc3c2Cl)c1F [Compound 4-26] | < 100 nM |

| SMILES | IC50 |
| --- | --- |
| O=C(O)c1cccc(COc2ccc(C(F)(F)F)cc2C2CC2)c1 [Compound 34-1, 3-((2-cyclopropyl-4-(trifluoromethyl)phenoxy)methyl)benzoic acid] | 500 to 1000 nM |
| O=C(O)c1cccc(COc2ccc3ccncc3c2)c1 [Compound 1-98] | 500 to 1000 nM |
| NC(=O)c1cccc(COc2cccc(Cl)c2Cl)c1 [Compound 13-1, 3-((2,3-dichlorophenoxy)methyl)benzamide] | > 2500 nM |
| FC(F)(F)Oc1ccc(OCc2cccc(-c3nnn[nH]3)c2)cc1Cl [Compound 17-10] | < 100 nM |
| COc1cc(OCc2cccc(C(=O)O)c2)ccc1C(F)(F)F [Compound 1-67] | 500 to 1000 nM |
| CC(C)c1ccc(OCc2cccc(C(=O)O)c2)cc1 [Compound 1-86] | 500 to 1000 nM |
| COC(=O)c1cccc(COc2ccc(Cl)cc2C(F)(F)F)n1 [Compound 1-10] | 500 to 1000 nM |
| O=C(O)c1cccc(COc2ccc(-c3ccccc3)cc2)c1 [Compound 1-81] | > 2500 nM |
| O=C(O)c1cccc(COc2ccc(C(F)F)cc2)c1 [Compound 33-2] | 100 to 500 nM |
| O=C(Nc1ccccc1)c1cccc(COc2ccc(C(F)(F)F)cc2Cl)c1 [Compound 52-11] | 100 to 500 nM |
| O=C(O)c1cccc(COc2ccc(C(F)(F)F)cc2)c1F [Compound 4-28] | < 100 nM |
| Cc1ccc(C(=O)O)cc1COc1ccc(Cl)cc1Cl [Compound 8-2] | 1000 to 2500 nM |
| O=C(O)c1cccc(CNc2ccc(Cl)cc2Cl)c1 [Compound 12-1, 3-(((2,4-dichlorophenyl)amino)methyl)benzoic acid] | 100 to 500 nM |
| N#Cc1cc(COc2ccc(Cl)c(Cl)c2Cl)cc(C(=O)O)c1 [Compound 32-3] | < 100 nM |
| O=C(O)CNC(=O)c1cccc(COc2ccc(C(F)(F)F)cc2Cl)c1 [Compound 54-2] | < 100 nM |
| O=C(O)c1cccc(COc2cccc3c2CCCC3=O)c1 [Compound 1-87] | 1000 to 2500 nM |
| O=C(O)c1cccc(COc2ccccc2Cl)c1F [Compound 4-29] | > 2500 nM |
| O=C(O)c1cccc(COc2ccc3ccccc3c2)c1 [Compound 1-17] | 100 to 500 nM |
